Test results taken from ChEMBL document CHEMBL4308841, “Synthesis, in vitro antiproliferative activity, and kinase inhibitory effects of pyrazole-containing diarylureas and diarylamides” (Eur J Med Chem, 2018).

Experiments:
Format in all cases: functional
786-0 = assay: Growth inhibition of human 786-0 cells assessed as cell growth at 10 uM incubated for 48 hrs by sulforhodamine B assay relative to control; conditions: 786-0, 48 h, read-out: Activity
KM12 = assay: Growth inhibition of human KM12 cells assessed as cell growth at 10 uM incubated for 48 hrs by sulforhodamine B assay relative to control; conditions: KM12, 48 h, read-out: Activity
BT-549 = assay: Growth inhibition of human BT549 cells assessed as cell growth at 10 uM incubated for 48 hrs by sulforhodamine B assay relative to control; conditions: BT-549, 48 h, read-out: Activity
SNB-75 = assay: Growth inhibition of human SNB75 cells assessed as cell growth at 10 uM incubated for 48 hrs by sulforhodamine B assay relative to control; conditions: SNB-75, 48 h, read-out: Activity
NCI-H460 = assay: Growth inhibition of human NCI-H460 cells assessed as cell growth at 10 uM incubated for 48 hrs by sulforhodamine B assay relative to control; conditions: NCI-H460, 48 h, read-out: Activity
MCF7 = assay: Growth inhibition of human MCF7 cells assessed as cell growth at 10 uM incubated for 48 hrs by sulforhodamine B assay relative to control; conditions: MCF7, 48 h, read-out: Activity
LOX IMVI = assay: Growth inhibition of human LOXIMVI cells assessed as cell growth at 10 uM incubated for 48 hrs by sulforhodamine B assay relative to control; conditions: read-out: Activity
NCI-H322M = assay: Growth inhibition of human NCI-H322M cells assessed as cell growth at 10 uM incubated for 48 hrs by sulforhodamine B assay relative to control; conditions: read-out: Activity
SR = assay: Growth inhibition of human SR cells assessed as cell growth at 10 uM incubated for 48 hrs by sulforhodamine B assay relative to control; conditions: read-out: Activity
A549 = assay: Growth inhibition of human A549/ATCC cells assessed as cell growth at 10 uM incubated for 48 hrs by sulforhodamine B assay relative to control; conditions: A549, 48 h, read-out: Activity
RXF 393 = assay: Growth inhibition of human RXF393 cells assessed as cell growth at 10 uM incubated for 48 hrs by sulforhodamine B assay relative to control; conditions: RXF 393, 48 h, read-out: Activity
MDA-MB-468 = assay: Growth inhibition of human MDA-MB-468 cells assessed as cell growth at 10 uM incubated for 48 hrs by sulforhodamine B assay relative to control; conditions: MDA-MB-468, 48 h, read-out: Activity
CAKI-1 = assay: Growth inhibition of human Caki1 cells assessed as cell growth at 10 uM incubated for 48 hrs by sulforhodamine B assay relative to control; conditions: CAKI-1, 48 h, read-out: Activity
OVCAR-5 = assay: Growth inhibition of human OVCAR5 cells assessed as cell growth at 10 uM incubated for 48 hrs by sulforhodamine B assay relative to control; conditions: OVCAR-5, 48 h, read-out: Activity
HCC 2998 = assay: Growth inhibition of human HCC2998 cells assessed as cell growth at 10 uM incubated for 48 hrs by sulforhodamine B assay relative to control; conditions: HCC 2998, 48 h, read-out: Activity
UACC-257 = assay: Growth inhibition of human UACC257 cells assessed as cell growth at 10 uM incubated for 48 hrs by sulforhodamine B assay relative to control; conditions: UACC-257, 48 h, read-out: Activity
HL-60(TB) = assay: Growth inhibition of human HL-60(TB) cells assessed as cell growth at 10 uM incubated for 48 hrs by sulforhodamine B assay relative to control; conditions: HL-60, 48 h, read-out: Activity
PC-3 = assay: Growth inhibition of human PC3 cells assessed as cell growth at 10 uM incubated for 48 hrs by sulforhodamine B assay relative to control; conditions: PC-3, 48 h, read-out: Activity
ACHN = assay: Growth inhibition of human ACHN cells assessed as cell growth at 10 uM incubated for 48 hrs by sulforhodamine B assay relative to control; conditions: read-out: Activity
SK-MEL-5 = assay: Growth inhibition of human SK-MEL-5 cells assessed as cell growth at 10 uM incubated for 48 hrs by sulforhodamine B assay relative to control; conditions: SK-MEL-5, 48 h, read-out: Activity
CCRF-CEM = assay: Growth inhibition of human CCRF-CEM cells assessed as cell growth at 10 uM incubated for 48 hrs by sulforhodamine B assay relative to control; conditions: read-out: Activity
UO-31 = assay: Growth inhibition of human UO31 cells assessed as cell growth at 10 uM incubated for 48 hrs by sulforhodamine B assay relative to control; conditions: UO-31, 48 h, read-out: Activity
M14 = assay: Growth inhibition of human M14 cells assessed as cell growth at 10 uM incubated for 48 hrs by sulforhodamine B assay relative to control; conditions: M14, 48 h, read-out: Activity
SF-295 = assay: Growth inhibition of human SF295 cells assessed as cell growth at 10 uM incubated for 48 hrs by sulforhodamine B assay relative to control; conditions: SF-295, 48 h, read-out: Activity
T47D = assay: Growth inhibition of human T47D cells assessed as cell growth at 10 uM incubated for 48 hrs by sulforhodamine B assay relative to control; conditions: read-out: Activity
MDA-MB-435 = assay: Growth inhibition of human MDA-MB-435 cells assessed as cell growth at 10 uM incubated for 48 hrs by sulforhodamine B assay relative to control; conditions: MDA-MB-435, 48 h, read-out: Activity
MOLT-4 = assay: Growth inhibition of human MOLT4 cells assessed as cell growth at 10 uM incubated for 48 hrs by sulforhodamine B assay relative to control; conditions: MOLT-4, 48 h, read-out: Activity
NCI-H226 = assay: Growth inhibition of human NCI-H226 cells assessed as cell growth at 10 uM incubated for 48 hrs by sulforhodamine B assay relative to control; conditions: NCI-H226, 48 h, read-out: Activity
A498 = assay: Growth inhibition of human A498 cells assessed as cell growth at 10 uM incubated for 48 hrs by sulforhodamine B assay relative to control; conditions: A498, 48 h, read-out: Activity
SF-539 = assay: Growth inhibition of human SF539 cells assessed as cell growth at 10 uM incubated for 48 hrs by sulforhodamine B assay relative to control; conditions: SF-539, 48 h, read-out: Activity
SNB-19 = assay: Growth inhibition of human SNB19 cells assessed as cell growth at 10 uM incubated for 48 hrs by sulforhodamine B assay relative to control; conditions: SNB-19, 48 h, read-out: Activity
HCT-116 = assay: Growth inhibition of human HCT116 cells assessed as cell growth at 10 uM incubated for 48 hrs by sulforhodamine B assay relative to control; conditions: HCT-116, 48 h, read-out: Activity
SK-MEL-28 = assay: Growth inhibition of human SK-MEL-28 cells assessed as cell growth at 10 uM incubated for 48 hrs by sulforhodamine B assay relative to control; conditions: SK-MEL-28, 48 h, read-out: Activity

| SMILES | growth at 10 µM (786-0) [%] | growth at 10 µM (KM12) [%] | growth at 10 µM (BT-549) [%] | growth at 10 µM (SNB-75) [%] | growth at 10 µM (NCI-H460) [%] | growth at 10 µM (MCF7) [%] | growth at 10 µM (LOX IMVI) [%] | growth at 10 µM (NCI-H322M) [%] | growth at 10 µM (SR) [%] | growth at 10 µM (A549) [%] | growth at 10 µM (RXF 393) [%] | growth at 10 µM (MDA-MB-468) [%] | growth at 10 µM (CAKI-1) [%] | growth at 10 µM (OVCAR-5) [%] | growth at 10 µM (HCC 2998) [%] | growth at 10 µM (UACC-257) [%] | growth at 10 µM (HL-60(TB)) [%] | growth at 10 µM (PC-3) [%] | growth at 10 µM (ACHN) [%] | growth at 10 µM (SK-MEL-5) [%] | further results |
| --- | --- | --- | --- | --- | --- | --- | --- | --- | --- | --- | --- | --- | --- | --- | --- | --- | --- | --- | --- | --- | --- |
| O=C(Nc1cccc(-n2cc(-c3ccncc3)c(-c3cc(O)cc(Cl)c3)n2)c1)Nc1ccc(Cl)c(C(F)(F)F)c1 | -29.8 | 15.1 | 47.6 | 24.1 | 3.75 | 13.4 | 2.08 | 45 | -30.6 | 8.81 | -49.5 | 5.22 | 29.1 | 59.3 | 34.3 | -40 | -26.9 | 5.34 | 21.3 | 23.8 | growth at 10 µM (CCRF-CEM): 9.31%; growth at 10 µM (UO-31): 18.5%; growth at 10 µM (M14): -16.8%; growth at 10 µM (SF-295): 14.3%; growth at 10 µM (T47D): 25%; growth at 10 µM (MDA-MB-435): 9.57%; growth at 10 µM (MOLT-4): -18%; growth at 10 µM (NCI-H226): 41.2%; growth at 10 µM (A498): 21.5%; growth at 10 µM (SF-539): 32.6%; growth at 10 µM (SNB-19): 44.5%; growth at 10 µM (HCT-116): 6.95%; growth at 10 µM (SK-MEL-28): -13.5% |
| COc1cc(Cl)cc(-c2nn(-c3cccc(NC(=O)c4cccc(C(F)(F)F)c4)c3)cc2-c2ccncc2)c1 | 66.6 | 43.7 | 89.5 | 53.9 | 41.1 | 39.4 | 51.7 | 78.6 | 29.1 | 39.1 | 40.5 | 47 | 54 | 84 | 54.6 | 68.7 | 67.3 | 23.1 | 48.1 | 70.7 | growth at 10 µM (CCRF-CEM): 42.3%; growth at 10 µM (UO-31): 37.2%; growth at 10 µM (M14): 56.3%; growth at 10 µM (SF-295): 37.9%; growth at 10 µM (T47D): 36.6%; growth at 10 µM (MDA-MB-435): 65.6%; growth at 10 µM (MOLT-4): 29%; growth at 10 µM (NCI-H226): 69%; growth at 10 µM (A498): 21.2%; growth at 10 µM (SF-539): 64.2%; growth at 10 µM (SNB-19): 82.2%; growth at 10 µM (HCT-116): 34.1%; growth at 10 µM (SK-MEL-28): 70.3% |
| COc1cc(Cl)cc(-c2nn(-c3cccc(NC(=O)c4ccc(N5CCOCC5)c(C(F)(F)F)c4)c3)cc2-c2ccncc2)c1 | 43.1 | 38.4 | 73 | 34.9 | 29.3 | 45.3 | 47.3 | 89.6 | 18.4 | 45.5 | 12.4 | 50.2 | 46.7 | 78.4 | 52.3 | 63.5 | 2.73 | 29.1 | 50.1 | 71.5 | growth at 10 µM (CCRF-CEM): 31.7%; growth at 10 µM (UO-31): 40.7%; growth at 10 µM (M14): 56.7%; growth at 10 µM (SF-295): 2.6%; growth at 10 µM (T47D): 49.2%; growth at 10 µM (MDA-MB-435): 63.4%; growth at 10 µM (MOLT-4): 38.3%; growth at 10 µM (NCI-H226): 64.2%; growth at 10 µM (A498): 31.4%; growth at 10 µM (SF-539): 52.1%; growth at 10 µM (SNB-19): 75.5%; growth at 10 µM (HCT-116): 47.8%; growth at 10 µM (SK-MEL-28): 53.2% |
| COc1cc(Cl)cc(-c2nn(-c3cccc(NC(=O)Nc4ccc(Cl)c(Cl)c4)c3)cc2-c2ccncc2)c1 | 19.6 | 14.3 | 29.4 | 16.2 | 3.1 | 4.66 | 9.24 | 32.3 | -18.4 | 11.3 | 4.46 | 0.72 | 7.49 | 37.8 | 26.7 | -11.4 | -5.12 | -5.03 | 9.65 | 3.51 | growth at 10 µM (CCRF-CEM): 5.73%; growth at 10 µM (UO-31): 0.64%; growth at 10 µM (M14): 18.7%; growth at 10 µM (SF-295): -2.42%; growth at 10 µM (T47D): 18.6%; growth at 10 µM (MDA-MB-435): 0.46%; growth at 10 µM (MOLT-4): -16.1%; growth at 10 µM (NCI-H226): 7.27%; growth at 10 µM (A498): -9.54%; growth at 10 µM (SF-539): 20.9%; growth at 10 µM (SNB-19): 17.8%; growth at 10 µM (HCT-116): 9.22%; growth at 10 µM (SK-MEL-28): 23.2% |
| O=C(Nc1cccc(-n2cc(-c3ccncc3)c(-c3cc(O)cc(Cl)c3)n2)c1)Nc1ccc(Cl)c(Cl)c1 | -72.1 | 2.26 | 0.54 | 4.08 | 0.21 | 2.74 | -84.7 | 19.5 | -21.4 | 3.96 | -70.3 | -1.88 | 5.31 | -2.26 | 0.57 | -70.7 | -23.4 | -1.66 | 6.85 | -53 | growth at 10 µM (CCRF-CEM): 4.11%; growth at 10 µM (UO-31): -41.2%; growth at 10 µM (M14): -69.2%; growth at 10 µM (SF-295): -50.5%; growth at 10 µM (T47D): -5.53%; growth at 10 µM (MDA-MB-435): -33.3%; growth at 10 µM (MOLT-4): -27.1%; growth at 10 µM (NCI-H226): 14.5%; growth at 10 µM (A498): -2.98%; growth at 10 µM (SF-539): -29%; growth at 10 µM (SNB-19): 30.8%; growth at 10 µM (HCT-116): -57.3%; growth at 10 µM (SK-MEL-28): -50.9% |
